Test results from paper PMC7612957 (Science (New York, N.Y.), 2020).
“Also recorded” adds a separate entry of the source. Read-outs that look alike come from different tables or passages of the source. Where no end group is shown, it is not given here.

Legend:
NRP1 b1 domain [1] = target: T1, NRP1 b1 domain (Homo sapiens, UniProt O14786); test: ITC binding to NRP1 b1 domain
NRP1 b1 domain [2] = target: T1, NRP1 b1 domain; test: ITC competition: EG00229 versus S1 CendR peptide for NRP1 b1; assay type: binding; details: pre-incubation with EG00229, N=3
SARS-CoV-2 = assay type: cell-based
NRP1 = details: selective NRP1 antagonist, binds the b1 CendR binding pocket; ref [14]; cited from earlier work
NRP1 b1 domain [3] = target: T2, NRP1 b1 domain; test: ITC
T2 chain: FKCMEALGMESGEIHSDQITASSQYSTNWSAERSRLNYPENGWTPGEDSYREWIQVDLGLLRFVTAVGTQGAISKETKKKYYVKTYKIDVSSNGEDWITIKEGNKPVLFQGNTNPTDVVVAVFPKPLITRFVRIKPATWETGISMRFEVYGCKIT

NRP1 b1 domain [4] = target: T2, NRP1 b1 domain; test: ITC

For NC(N)=NCCC[C@H](NC(=O)c1sccc1NS(=O)(=O)c1cccc2nsnc12)C(=O)O [EG00229], the Kd (NRP1 b1 domain [1]; read-out: Kd for NRP1 b1 domain, EG00229, pH 5.5, N=3, fit with 1-to-1 ratio binding) was 11 µM, the Kd (NRP1 b1 domain [1]; read-out: Kd for NRP1 b1 domain, EG00229, pH 7.5, N=3, fit with 1-to-1 ratio binding) was 5.1 µM and the “inhibition of S1 CendR peptide binding to b1” value (NRP1 b1 domain [2]) was “blocks S1 CendR peptide binding; also recorded: inhibited the direct binding between b1 and the S1 CendR peptide”. The “reduction of SARS-CoV-2 infection by EG00229” value (SARS-CoV-2) was “reduced the efficiency of SARS-CoV-2 infection” and the “inhibition of VEGF-A binding” value (NRP1) was “inhibits VEGF-A binding”.

Molecule NSPRRAR [S1 CendR peptide] has a Kd (NRP1 b1 domain [1]; affinity for NRP1 b1 domain, pH 7.5, N=3, fit with 1-to-1 ratio binding) of 20.3 µM.

B1: S1 CendR peptide (679NSPRRAR685) (peptide)
peptide: NSPRRAR
B1 gave a Kd (NRP1 b1 domain [3]) of 13 µM and a Kd (NRP1 b1 domain [4]) of 20.3 µM.
